# PMC10205807, “Cross-species comparison in nonclinical pharmacokinetics of lenvatinib by a simple HPLC with ultraviolet detection” (Scientific Reports, 2023)
# Columns and labels:
# [1] = Stability of lenvatinib in monkey plasma and processed samples; format: physicochemical, monkeys; details: monkey plasma; for Freeze/thaw stability, mean percentage bias from the theoretical values: 3 cycles; for Frozen stability, mean percentage bias from the theoretical values: below − 15 °C, 6 weeks
# Description: (§1) Calibration samples and QC samples for the reproducibility assessment were prepared by spiking 0.05 mL of the working standard solutions to blank plasma (0.05 mL), and QC samples for the stability assessment were prepared by fortifying 0.05 mL of the solution to 1.5 mL of bank plasma. Lenvatinib concentrations in plasma were 0.005, 0.01, 0.03, 0.1, 0.3, 1, 3, 10, 30, and 100 μg/mL for the calibration samples, and were 0.005, 0.01, 1, and 100 μg/mL for the QC samples for reproducibility assessment. Lenvatinib concentrations of QC samples for the stability assessment were 0.01, 1, and 80 μg/mL.
# The developed method for the determination of lenvatinib concentrations in plasma was validated and the following validation parameters including linearity, selectivity, intra- and inter-batch reproducibility, extraction recovery, and stability were evaluated in accordance with the bioanalytical guidelines by United States Food and Drug Administration (US-FDA)[7]. The peak height ratios of lenvatinib to the IS of calibration samples were plotted against the corresponding nominal concentrations of lenvatinib. The calibration curve was prepared by the least square method with 1/(concentration)^2 as the weighting factor. In the linearity assessment, accuracy of each calibration sample was determined to ensure that relative error (RE) at each concentration was within ± 15% (within ± 20% at the LLOQ). In the selectivity assessment, peak heights at the retention times of lenvatinib and the IS should be within 20% and 5% of those of the LLOQ for lenvatinib and the IS, respectively in blank plasma from six individuals. Intra-batch accuracy and precision were evaluated using QC samples at the four concentrations, LLOQ, low QC (LQC), mid QC (MQC), and ULOQ. Six replicates per concentration were assayed to calculate RE and relative standard deviation (RSD). Inter-batch accuracy and precision were evaluated by testing a single sample at each concentration across five batches (n = 5 in total). The acceptance criteria for RE and RSD in the intra- and inter-batch reproducibility should be within ± 15% and 15%, respectively, except at the LLOQ that was within ± 20% and 20%, respectively, was allowed. Extraction recoveries of lenvatinib and the IS from plasma samples of the four species were evaluated. The recoveries of lenvatinib at the low, mid, and high QC levels (triplicates per concentration), and that of the IS (0.5 μg/mL) were determined. Peak heights of lenvatinib after extraction from plasma samples were compared to those of the neat solution with the same concentrations. Stability of lenvatinib in plasma and processed samples was assessed at the low and high QC levels. Lenvatinib concentrations in samples after storage were compared to the theoretical concentrations and RE values were calculated. The RE values should be within ± 15% when considered stable. Freeze–thaw stability in plasma was evaluated up to three freeze–thaw cycles and frozen stability in plasma was evaluated at − 15 °C or below for 4 weeks (mice, rats, and dogs) or 6 weeks (monkeys). Stability in processed samples was assessed at 4 °C for 7 days. Stability of lenvatinib in the standard solutions was evaluated for the stock (100 μg/mL) and the working solution (5 ng/mL). The stability of the IS solution (0.5 μg/mL) was also assessed. The standard solutions were stored at 5 °C for 4 weeks or 6 h at ambient temperature. The peak height of the stored solutions was compared to that of the freshly prepared solution. […]
# [2] = test system: plasma protein; assay: plasma unbound fraction, humans; format: in vitro ADME; details: human
# [3] = test system: plasma protein; assay: in vitro plasma protein binding, rats; format: in vitro ADME
# [4] = Stability of lenvatinib in dog plasma and processed samples; format: physicochemical, dogs; details: dog plasma; for Freeze/thaw stability, mean percentage bias from the theoretical values: 3 cycles
# Description: as §1
# The developed method for the determination of lenvatinib concentrations in plasma was validated and the following validation parameters including linearity, selectivity, intra- and inter-batch reproducibility, extraction recovery, and stability were evaluated in accordance with the bioanalytical guidelines by United States Food and Drug Administration (US-FDA)[7]. […] In the linearity assessment, accuracy of each calibration sample was determined to ensure that relative error (RE) at each concentration was within ± 15% (within ± 20% at the LLOQ). […] Intra-batch accuracy and precision were evaluated using QC samples at the four concentrations, LLOQ, low QC (LQC), mid QC (MQC), and ULOQ. […] Inter-batch accuracy and precision were evaluated by testing a single sample at each concentration across five batches (n = 5 in total). […] Extraction recoveries of lenvatinib and the IS from plasma samples of the four species were evaluated. The recoveries of lenvatinib at the low, mid, and high QC levels (triplicates per concentration), and that of the IS (0.5 μg/mL) were determined. […] Stability of lenvatinib in plasma and processed samples was assessed at the low and high QC levels. Lenvatinib concentrations in samples after storage were compared to the theoretical concentrations and RE values were calculated. […] Freeze–thaw stability in plasma was evaluated up to three freeze–thaw cycles and frozen stability in plasma was evaluated at − 15 °C or below for 4 weeks (mice, rats, and dogs) or 6 weeks (monkeys). […]
# [5] = PK study in rats (intravenous and oral); format: in vivo; details: for Tmax: median (range)
# Description: Sprague–Dawley male rats were purchased from Charles River Japan, Inc., and were used for the PK study after 8 days of an acclimatization period. Rats were 8 weeks old when lenvatinib was dosed and the body weight range was 0.28–0.31 (kg). Rats were fasted a day before the PK study and feeding was resumed 4 h postdose. Dosing solution of lenvatinib used in the rat PK study was the same as that in the mice PK study, and the dose levels were 3 mg/kg for the intravenous administration via femoral vein, and 3, 10, and 30 mg/kg for the oral administration by gastric gavage (n = 4/dose). Approximately 0.25 mL of blood samples were obtained from the jugular vein using heparinized syringes at predose, and at 5, 15 and 30 min, and 1, 2, 4, 6, 8, 12 and 24 h postdose. Plasma sample preparation and sample storage were the same as those in the mice PK study.
# PK parameters of lenvatinib were estimated by model independent analysis using a WinNonlin program (Version 4.1, Pharsight Corporation, Mountain View, CA). The time to reach the maximum plasma concentration (Tmax) and the maximum plasma concentration (Cmax) values were obtained directly from the plasma concentration data. Terminal half-life (T1/2) was calculated by ln2/ke, where ke is the slope of the regression line that fits the portion of the terminal phase (at least three time points) in the log-linear concentration–time curve. AUC0–t and AUMC0–t, the area under the concentration–time curves and the area under the first moment curve, from time = zero to time = t, respectively, were calculated using the lenvatinib concentrations in plasma by the linear/log trapezoidal method. AUC0–inf was calculated by AUC0–t + Ct/ke, and AUMC0–inf was AUMC0–t + Ct × t/ke + Ct/(ke)^2, where Ct is the last measurable concentration at time = t. The plasma concentration at time zero for the intravenous dose was extrapolated, while zero was used for the oral doses. Mean residence time (MRT), total plasma clearance (CLtot) and the volume of distribution at steady state (Vdss) were calculated by AUMC0–inf/AUC0–inf, Dose/AUC0–inf and CLtot × MRT, respectively. Oral bioavailability (F) was estimated by comparing dose-normalized AUC0–inf after oral (AUC0–inf.po) and intravenous (AUC0–inf.iv) administration as follows: F (%) = (AUC0–inf.po/AUC0–inf.iv) × 100.
# [6] = male, Sprague-Dawley, rat, plasma, intravenous 3 mg/kg
# [7] = male, Sprague-Dawley, rat, plasma, oral 3 mg/kg
# [8] = male, Sprague-Dawley, rat, plasma, oral 10 mg/kg
# [9] = male, Sprague-Dawley, rat, plasma, oral 30 mg/kg
smiles,measurement,setting,value
"COc1cc2nccc(Oc3ccc(NC(=O)NC4CC4)c(Cl)c3)c2cc1C(N)=O [lenvatinib, Lenvatinib]","Freeze/thaw stability, mean percentage bias from the theoretical values",[1]; HQC 80 μg/mL,1.6%
same,"Freeze/thaw stability, mean percentage bias from the theoretical values",[1]; MQC 1 μg/mL,2.3%
same,"Frozen stability, mean percentage bias from the theoretical values",[1]; HQC 80 μg/mL,7.0%
same,"Frozen stability, mean percentage bias from the theoretical values",[1]; LQC 0.01 μg/mL,2.0%
same,"Frozen stability, mean percentage bias from the theoretical values",[1]; MQC 1 μg/mL,4.2%
same,fraction unbound,[2],0.0172
same,fraction unbound at 0.3 μg/mL,"[3]; rat plasma, 0.3 μg/mL",0.019
same,fraction unbound,"[3]; rat, plasma, rats, 0.3–30 μg/mL, read-out: average fp (unbound fraction in plasma)",0.02
same,"Freeze/thaw stability, mean percentage bias from the theoretical values",[4]; HQC 80 μg/mL,0.6%
same,"Freeze/thaw stability, mean percentage bias from the theoretical values",[4]; MQC 1 μg/mL,1.5%
same,"Frozen stability, mean percentage bias from the theoretical values","[4]; below − 15 °C, 4 weeks, HQC 80 μg/mL",3.1%
same,CLint (hepatic intrinsic clearance),"[5]; estimated from oral PK, Fa and Fg assumed unity, BW 0.2 kg",1440 mL/h
same,AUC(0-inf),[5]; [6],30100 ± 1330 ng·h/mL
same,MRT,[5]; [6],3.93 ± 0.19 h
same,C0,"[5]; male, Sprague-Dawley, rat, plasma, intravenous 3 mg/kg, extrapolated",16000 ± 416 ng/mL
same,clearance,"[5]; male, Sprague-Dawley, rat, plasma, intravenous 3 mg/kg, read-out: CLtot (converted)",1.67 mL/min/kg
same,Vd,"[5]; male, Sprague-Dawley, rat, plasma, intravenous 3 mg/kg, read-out: Vdss",0.392 ± 0.0099 L/kg
same,half-life,"[5]; male, Sprague-Dawley, rat, plasma, iv, 3 mg/kg, intravenous 3 mg/kg",3.65 ± 0.09 h
same,AUC(0-inf),[5]; [7],20700 ± 3120 ng·h/mL
same,Cmax,[5]; [7],6170 ± 1370 ng/mL
same,MRT,[5]; [7],4.46 ± 0.16 h
same,bioavailability,"[5]; male, Sprague-Dawley, rat, plasma, oral 3 mg/kg vs intravenous 3 mg/kg, read-out: F (oral bioavailability)",68.7%
same,Tmax,[5]; [7],0.5 h
same,AUC(0-inf),[5]; [8],78300 ± 6580 ng·h/mL
same,Cmax,[5]; [8],16600 ± 1240 ng/mL
same,MRT,[5]; [8],6.31 ± 0.53 h
same,Tmax,[5]; [8],0.5 h
same,AUC(0-inf),[5]; [9],146000 ± 18500 ng·h/mL
same,Cmax,[5]; [9],23200 ± 4770 ng/mL
same,MRT,[5]; [9],6.86 ± 1.02 h
same,Tmax,[5]; [9],1 h
same,half-life,"[5]; male, Sprague-Dawley, rat, plasma, po, 3 mg/kg, oral 3 mg/kg",3.61 ± 0.21 h
same,half-life,"[5]; male, Sprague-Dawley, rat, plasma, po, 10 mg/kg, oral 10 mg/kg",5.27 ± 0.33 h
same,half-life,"[5]; male, Sprague-Dawley, rat, plasma, po, 30 mg/kg, across 3, 10, and 30 mg/kg",3.61 to 5.27 h
same,half-life,"[5]; male, Sprague-Dawley, rat, plasma, po, 30 mg/kg, oral 30 mg/kg",4.95 ± 0.77 h
